Assay results from ChEMBL document CHEMBL1158404, “Antifungal activity of alkyl and heterocyclic aza-derivatives of gossypol as well as their complexes with NaClO4 against Fusarium oxysporum f. sp. lupini” (2009).

What was measured:
Format in all cases: functional
Fusarium oxysporum [1] = experiment: Antifungal activity against Fusarium oxysporum f. sp. lupini at 0.5 ug/ml after 144 hrs
Fusarium oxysporum [2] = experiment: Antifungal activity against Fusarium oxysporum f. sp. lupini at 20 ug/ml after 192 hrs
Fusarium oxysporum [3] = experiment: Antifungal activity against Fusarium oxysporum f. sp. lupini at 0.1 ug/ml after 192 hrs relative to control; conditions: read-out: GI
Fusarium oxysporum [4] = experiment: Antifungal activity against Fusarium oxysporum f. sp. lupini at 0.5 ug/ml after 192 hrs relative to control; conditions: read-out: GI
Fusarium oxysporum [5] = experiment: Antifungal activity against Fusarium oxysporum f. sp. lupini at 0.5 ug/ml after 48 hrs
Fusarium oxysporum [6] = experiment: Antifungal activity against Fusarium oxysporum f. sp. lupini at 20 ug/ml after 96 hrs
Fusarium oxysporum [7] = experiment: Antifungal activity against Fusarium oxysporum f. sp. lupini at 0.1 ug/ml after 96 hrs
Fusarium oxysporum [8] = experiment: Antifungal activity against Fusarium oxysporum f. sp. lupini at 1 ug/ml after 192 hrs
Fusarium oxysporum [9] = experiment: Antifungal activity against Fusarium oxysporum f. sp. lupini at 1 ug/ml after 48 hrs
Fusarium oxysporum [10] = experiment: Antifungal activity against Fusarium oxysporum f. sp. lupini at 1 ug/ml after 192 hrs relative to control; conditions: read-out: GI
Fusarium oxysporum [11] = experiment: Antifungal activity against Fusarium oxysporum f. sp. lupini at 20 ug/ml after 192 hrs relative to control; conditions: read-out: GI
Fusarium oxysporum [12] = experiment: Antifungal activity against Fusarium oxysporum f. sp. lupini at 1 ug/ml after 144 hrs
Fusarium oxysporum [13] = experiment: Antifungal activity against Fusarium oxysporum f. sp. lupini at 0.1 ug/ml after 192 hrs
Fusarium oxysporum [14] = experiment: Antifungal activity against Fusarium oxysporum f. sp. lupini at 1 ug/ml after 96 hrs
Fusarium oxysporum [15] = experiment: Antifungal activity against Fusarium oxysporum f. sp. lupini at 20 ug/ml after 144 hrs
Fusarium oxysporum [16] = experiment: Antifungal activity against Fusarium oxysporum f. sp. lupini at 20 ug/ml after 48 hrs
Fusarium oxysporum [17] = experiment: Antifungal activity against Fusarium oxysporum f. sp. lupini at 0.5 ug/ml after 192 hrs
Fusarium oxysporum [18] = experiment: Antifungal activity against Fusarium oxysporum f. sp. lupini at 0.5 ug/ml after 96 hrs
Fusarium oxysporum [19] = experiment: Antifungal activity against Fusarium oxysporum f. sp. lupini at 0.1 ug/ml after 48 hrs
Fusarium oxysporum [20] = experiment: Antifungal activity against Fusarium oxysporum f. sp. lupini at 0.1 ug/ml after 144 hrs

With `Cc1cc2c(C(C)C)c(O)c(O)c(C=O)c2c(O)c1-c1c(C)cc2c(C(C)C)c(O)c(O)c(C=O)c2c1O` [GOSSYPOL] the “Radial growth inhibition of fungi (Ā) (mm)” value (from here on “Radial growth inhibition”) (Fusarium oxysporum [1]) was 39.5 mm, the “Radial growth inhibition” value (Fusarium oxysporum [2]) was 46 mm and the inhibition of growth at 0.1 µg/mL (Fusarium oxysporum [3]) was 7.2%. For the same compound, the inhibition of growth at 0.5 µg/mL (Fusarium oxysporum [4]) was 14.8%, the “Radial growth inhibition” value (Fusarium oxysporum [5]) was 18.63 mm and the “Radial growth inhibition” value (Fusarium oxysporum [6]) was 25.25 mm. The “Radial growth inhibition” value (Fusarium oxysporum [7]) was 30.63 mm, the “Radial growth inhibition” value (Fusarium oxysporum [8]) was 47.25 mm and the “Radial growth inhibition” value (Fusarium oxysporum [9]) was 17.25 mm. For the same compound, the inhibition of growth at 1 µg/mL (Fusarium oxysporum [10]) was 20.3%, the inhibition of growth at 20 µg/mL (Fusarium oxysporum [11]) was 22.4% and the “Radial growth inhibition” value (Fusarium oxysporum [12]) was 36.75 mm. The “Radial growth inhibition” value (Fusarium oxysporum [13]) was 55 mm, the “Radial growth inhibition” value (Fusarium oxysporum [14]) was 26.25 mm and the “Radial growth inhibition” value (Fusarium oxysporum [15]) was 35 mm. For the same compound, the “Radial growth inhibition” value (Fusarium oxysporum [16]) was 14.88 mm, the “Radial growth inhibition” value (Fusarium oxysporum [17]) was 50.5 mm and the “Radial growth inhibition” value (Fusarium oxysporum [18]) was 27.88 mm. For the same compound, the “Radial growth inhibition” value (Fusarium oxysporum [19]) was 19.63 mm and the “Radial growth inhibition” value (Fusarium oxysporum [20]) was 42.75 mm.
